Reference: patent US20040081973A1, “Cloning and characterization of a novel BK channel isoform highly expressed in glioma cells” (priority 2002, published 2004)
One block for each compound: values may come before it.

Legend:
[1] = target: glioma BK (gBK) channel, novel splice variant of hSlo alpha-subunit (human) (UniProt Q12791); test: cell-based or functional assay
Kca current = conditions: CEFs transformed with Rous sarcoma virus (Repp et al., 1993); cited from earlier work
Kca = conditions: EGF and PDGF stimulation (Huang and Rane, 1994); cited from earlier work
hbr5 = target: T1, hbr5 (Homo sapiens, UniProt Q12791); test: Tetrandrine inhibition of hbr5 currents in outside-out patches from HEK cells transfected with hbr5; assay type: cell-based; conditions: HEK293, 3 uM tetrandrine, voltage steps to +120 mV
T1 construct: expressed in transfected cells; host or cells: HEK cells

gBK = target: T2, gBK (Homo sapiens, UniProt Q12791); test: Tetrandrine inhibition of gBK currents in outside-out patches; assay type: cell-based; conditions: 3 uM tetrandrine, voltage steps to +120 mV
T2 construct: Outside-out patches were isolated from STTG-1 cells; endogenous in cells
Protocol: Outside-out patches were isolated from STTG-1 cells and the voltage dependence of gBK currents were isolated with different [Ca^2+]i. Currents were integrated over the period of a voltage step and the average conductance was calculated from these areas (Ransom and Sontheimer, 2002). For each patch, 5-20 families of current traces over a range of voltages were obtained and the average conductance values at each membrane potential were determined. The normalized conductance was plotted as a function of membrane potential (activation curves) and fit to the Boltzman equation to obtain half-maximal voltages, V0.5. A total of 45 outside-out patches and their corresponding activation curves with [Ca^2+]i of 0 (10 mM EGTA added), 1.5×10−7 M and 2.1×10−6 M were determined. […] (FIGS. 11A and 11B). For comparison, the same set of experiments was performed on the hbr5 BK channel (Ransom and Sontheimer, 2002). V0.5 for hbr5 BK channel at [Ca^2+]i of 0 (10 mM EGTA added), 1.5×10−7 M and 2.1×10−6 M were +118 mV, +52 mV and −23 mV (FIGS. 12A and 12B).
If gBK channels are associated with β-subunits, then they should be sensitive to tetrandrine, a plant alkaloid. 3 uM tetrandrine has been reported to inhibit β-subunit-containing channels over 50%.

Sequence of glioma BK (gBK) channel, novel splice variant of hSlo alpha-subunit (human) (Q12791 other isoform, or with tags, fused parts or gaps mutant): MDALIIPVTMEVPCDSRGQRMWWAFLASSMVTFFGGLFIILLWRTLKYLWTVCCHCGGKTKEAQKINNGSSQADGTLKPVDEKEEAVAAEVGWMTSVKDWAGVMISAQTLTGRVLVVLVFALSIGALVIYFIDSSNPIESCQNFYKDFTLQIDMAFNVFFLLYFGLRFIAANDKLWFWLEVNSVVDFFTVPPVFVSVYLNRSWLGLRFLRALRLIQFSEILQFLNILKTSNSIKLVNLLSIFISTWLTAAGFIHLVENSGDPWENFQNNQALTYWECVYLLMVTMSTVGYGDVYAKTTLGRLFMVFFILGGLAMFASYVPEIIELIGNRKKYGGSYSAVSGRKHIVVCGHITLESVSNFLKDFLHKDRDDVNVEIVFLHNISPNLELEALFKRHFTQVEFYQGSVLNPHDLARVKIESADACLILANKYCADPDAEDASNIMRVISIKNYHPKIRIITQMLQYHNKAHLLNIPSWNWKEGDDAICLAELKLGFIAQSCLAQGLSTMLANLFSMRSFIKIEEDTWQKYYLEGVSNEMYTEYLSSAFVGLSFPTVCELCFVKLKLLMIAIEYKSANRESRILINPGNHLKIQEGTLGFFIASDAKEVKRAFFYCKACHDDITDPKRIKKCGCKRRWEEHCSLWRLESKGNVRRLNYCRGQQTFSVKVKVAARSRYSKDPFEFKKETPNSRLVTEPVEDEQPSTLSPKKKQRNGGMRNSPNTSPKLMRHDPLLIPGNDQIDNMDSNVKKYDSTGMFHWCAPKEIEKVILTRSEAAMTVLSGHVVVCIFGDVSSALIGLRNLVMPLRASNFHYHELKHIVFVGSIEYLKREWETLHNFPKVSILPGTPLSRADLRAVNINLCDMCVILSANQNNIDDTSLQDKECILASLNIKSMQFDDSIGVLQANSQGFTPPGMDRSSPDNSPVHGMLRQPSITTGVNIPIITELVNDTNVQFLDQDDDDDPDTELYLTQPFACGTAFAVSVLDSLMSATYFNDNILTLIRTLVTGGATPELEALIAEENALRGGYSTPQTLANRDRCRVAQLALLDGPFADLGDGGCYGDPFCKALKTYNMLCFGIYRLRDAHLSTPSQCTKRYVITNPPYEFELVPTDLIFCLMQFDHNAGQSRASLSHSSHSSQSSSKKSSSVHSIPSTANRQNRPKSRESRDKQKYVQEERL
T2 sequence (Q12791 1-1239 isoform Q12791-7): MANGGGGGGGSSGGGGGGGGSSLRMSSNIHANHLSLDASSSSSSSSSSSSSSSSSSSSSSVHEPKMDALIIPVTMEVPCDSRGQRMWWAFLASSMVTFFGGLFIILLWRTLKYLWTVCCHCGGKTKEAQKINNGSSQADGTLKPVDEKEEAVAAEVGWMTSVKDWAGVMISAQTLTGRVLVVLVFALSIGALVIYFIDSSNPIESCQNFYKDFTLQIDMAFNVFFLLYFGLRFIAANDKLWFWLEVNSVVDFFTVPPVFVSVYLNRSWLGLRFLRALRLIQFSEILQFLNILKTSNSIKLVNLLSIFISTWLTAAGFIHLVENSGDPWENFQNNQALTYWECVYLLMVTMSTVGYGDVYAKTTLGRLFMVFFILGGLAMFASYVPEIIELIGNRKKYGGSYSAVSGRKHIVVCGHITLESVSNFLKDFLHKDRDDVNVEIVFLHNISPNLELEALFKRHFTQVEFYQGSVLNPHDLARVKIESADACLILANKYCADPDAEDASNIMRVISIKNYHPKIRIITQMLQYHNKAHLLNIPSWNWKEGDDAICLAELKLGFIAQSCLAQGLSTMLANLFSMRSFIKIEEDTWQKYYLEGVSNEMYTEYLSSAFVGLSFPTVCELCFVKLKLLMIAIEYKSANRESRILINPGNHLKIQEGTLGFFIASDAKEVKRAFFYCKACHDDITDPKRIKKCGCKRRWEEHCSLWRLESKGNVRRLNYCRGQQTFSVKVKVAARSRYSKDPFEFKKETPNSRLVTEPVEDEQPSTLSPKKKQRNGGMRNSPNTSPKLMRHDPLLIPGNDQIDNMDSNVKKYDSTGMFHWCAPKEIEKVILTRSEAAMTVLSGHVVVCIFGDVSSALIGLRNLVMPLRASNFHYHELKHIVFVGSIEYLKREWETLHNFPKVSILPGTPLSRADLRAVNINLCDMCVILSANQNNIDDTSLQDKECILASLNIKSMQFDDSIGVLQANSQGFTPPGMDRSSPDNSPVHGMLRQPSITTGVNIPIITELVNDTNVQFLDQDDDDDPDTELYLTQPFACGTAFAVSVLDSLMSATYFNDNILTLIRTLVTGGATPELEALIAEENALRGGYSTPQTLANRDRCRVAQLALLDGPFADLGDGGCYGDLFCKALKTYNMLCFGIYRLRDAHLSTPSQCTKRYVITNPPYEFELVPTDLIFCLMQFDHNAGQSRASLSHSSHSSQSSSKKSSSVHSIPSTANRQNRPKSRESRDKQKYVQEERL
T1 sequence (Q12791 1-1207 isoform Q12791-4): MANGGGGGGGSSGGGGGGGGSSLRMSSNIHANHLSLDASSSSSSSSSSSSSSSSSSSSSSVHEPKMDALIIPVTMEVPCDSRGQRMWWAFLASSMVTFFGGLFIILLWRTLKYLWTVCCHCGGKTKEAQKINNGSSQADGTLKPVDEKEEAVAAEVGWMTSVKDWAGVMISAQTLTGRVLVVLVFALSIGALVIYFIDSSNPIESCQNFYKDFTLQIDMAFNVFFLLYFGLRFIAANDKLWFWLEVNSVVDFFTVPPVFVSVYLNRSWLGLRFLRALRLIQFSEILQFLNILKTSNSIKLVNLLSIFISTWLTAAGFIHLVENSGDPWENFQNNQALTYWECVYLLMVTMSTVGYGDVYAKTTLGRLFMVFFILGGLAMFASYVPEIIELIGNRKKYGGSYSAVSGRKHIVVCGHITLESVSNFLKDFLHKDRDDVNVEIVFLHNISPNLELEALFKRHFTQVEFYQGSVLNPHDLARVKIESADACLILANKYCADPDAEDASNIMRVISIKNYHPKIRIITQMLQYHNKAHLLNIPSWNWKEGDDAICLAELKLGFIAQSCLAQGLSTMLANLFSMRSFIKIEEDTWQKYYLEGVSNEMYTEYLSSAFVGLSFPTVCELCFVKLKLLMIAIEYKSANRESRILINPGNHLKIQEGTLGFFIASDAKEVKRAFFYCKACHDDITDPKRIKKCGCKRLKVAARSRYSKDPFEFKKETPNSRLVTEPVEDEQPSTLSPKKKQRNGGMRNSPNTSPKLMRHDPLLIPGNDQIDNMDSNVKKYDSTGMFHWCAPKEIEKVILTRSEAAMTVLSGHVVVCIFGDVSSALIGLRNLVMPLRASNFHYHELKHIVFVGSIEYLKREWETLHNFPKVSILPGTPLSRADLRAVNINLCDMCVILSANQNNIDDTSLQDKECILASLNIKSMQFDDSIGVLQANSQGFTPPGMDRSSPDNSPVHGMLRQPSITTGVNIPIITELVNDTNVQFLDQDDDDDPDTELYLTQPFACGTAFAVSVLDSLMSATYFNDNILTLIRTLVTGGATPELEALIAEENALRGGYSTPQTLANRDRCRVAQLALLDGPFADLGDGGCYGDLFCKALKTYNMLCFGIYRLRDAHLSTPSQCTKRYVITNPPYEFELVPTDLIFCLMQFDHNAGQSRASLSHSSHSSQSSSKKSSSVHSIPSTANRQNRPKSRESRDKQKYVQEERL

Compound: iberiotoxin (IbTX) (from UniProt P24663 1-37) (peptide)
inhibition of total outward currents in gBK injected oocytes by 100 nM IbTX [1]: > 60%

Compound: charybdotoxin [ChTX]
IC50 (Kca current): 0.019 µM
Effect on mitogenic stimulation (Kca): inhibited the stimulatory effect of the mitogen

Compound: CC[N+](CC)(CC)CC [TEA]
IC50 (Kca current): 1800 µM

inhibition at 3 µM (hbr5): 14%
inhibition at 3 µM (gBK): 63%
Compound: COc1ccc2cc1Oc1ccc(cc1)C[C@H]1c3cc(c(OC)cc3CCN1C)Oc1c(OC)c(OC)cc3c1[C@H](C2)N(C)CC3 [tetrandrine]
